Here are results for six molecules from US20100239568A1, “DIAGNOSTICS AND TREATMENTS FOR TUMORS” (GENENTECH, INC., priority 2006, published 2010).

Series [1] concerns CD11b+Gr1+ cells. Kind of series: Flow cytometry of myeloid cells in tumor, bone marrow and peripheral blood of treated mice. Format: in vivo, mouse. As to conditions: for CD11b+Gr1+ cells in B16F1 tumors after chemotherapy: tumor isolates after 17 days. As for the experimental part: Flow cytometry. Tumors of control and anti-VEGF-treated mice were isolated and single cell suspension was generated by chopping of tumor tissues followed by treatment with a cell homogenizer (VWR). BMMNCs were flushed from femur and tibia of implated animals and underwent RBC lysis using ACK lysis buffer (Cambrex, Mass.). Peripheral blood was collected by retro-orbital bleed and 40 μl of peripheral blood was pre-treated with ACK buffer for red blood cells lysis.
Cells from BM, tumor or peripheral blood were stained with a series of monoclonal antibodies including, CD11b, Gr1, CD19, CD90, VEGFR2, CXCR4, L-Selectin2 (all from BD BioSciences, CA), VEGFR1 (R&D, CA), Tie2 (eBioSciences, CA) along with appropriate isotype control to investigate the myeloid and lymphoid fractions in each compartment. FACS data were acquired on FACS calibur and analyzed by Cell Quest Pro software (BD Biosciences).
To isolate GFP+ cells and/or CD11b+Gr1+, single cell suspension was provided from the bone marrow or tumors of implanted mice. Cells and were stained with anti-CD11b conjugated to APC and anti-Gr1 conjugated to PE. Populations of GFP, GFP−, CD11b+Gr1+ and CD11b−Gr1− cells were isolated in a FACS Vantage machine and post-sort analysis ensured the purity of the population of interest in each compartment.

For series [2], the system named is EL4 tumors. Kind of series: Tumor growth of EL4 tumors in mice. Format: in vivo, mouse. The settings on record: EL4 in C57BL/6; 5FU 50 mg/kg once a week, Gemcitabine 120 mg/kg twice a week, IP; day 17. The procedure: (§1) Cell Lines. The EL4, LLC, B16F1 and TIB6 (J558) tumor cell lines were obtained from American Type Culture Collection (ATCC) and maintained in tissue culture in high glucose Dulbecco's Modified Medium (DMEM) and supplemented with 10% fetal bovine serum (FBS) and 2 mM glutamine. The terms “B16F1” and “B16” are used interchangeably herein to refer to the same melanoma cell line.
(§2) Antibodies. Anti-VEGF, such as G6-23, is an antibody that binds to and neutralizes murine and human forms of VEGF. Derived from phage display technology, the IgG portion comprised murine isotype IgG2a (see, e.g., Malik, A. K. et al. Redundant roles of VEGF-B and P1GF during selective VEGF-A blockade in mice. Blood 107:550-7 (2006)) and was dosed at 10 mg/kg, IP, twice weekly unless indicated otherwise. Isotype-matched control antibody was anti-human ragweed-IgG2a (Genentech, Inc.). Anti-CD11b+ antibody (eBioSciences), anti-L-selectin (BD BioSciences) and anti-CXCR4 (Torrey Pines Lab) were used in FACS experiments. […] Tumor measurement was performed twice/week and terminal tumor weights were determined as described above. […]
(§3) B16F1 admixing experiments. […] Tumor size was assessed using Vernier calipers 2-3 times per week after tumors reached a palpable size. Tumor volume was determined using the Pi/6×L×W×W formula with L as the longest diameter and W the diameter at the position perpendicular to L. […]

For series [3], the system named is LLC tumors. The series can be described thus: Tumor growth of LLC tumors in mice. Format: in vivo, mouse. As to conditions: LLC in C57BL/6; 5FU 50 mg/kg once a week, Gemcitabine 120 mg/kg twice a week, IP; day 17. The procedure: as §1, §2, §3
Series [4] has as its system TIB6 tumors. The series can be described thus: Tumor growth of TIB6 tumors in mice. Format: in vivo, mouse. The settings on record: TIB6 in C57BL/6; 5FU 50 mg/kg once a week, Gemcitabine 120 mg/kg twice a week, IP; day 17. The procedure:
as §1
Antibodies. Anti-VEGF, such as G6-23, is an antibody that binds to and neutralizes murine and human forms of VEGF. Derived from phage display technology, the IgG portion comprised murine isotype IgG2a (see, e.g., Malik, A. K. et al. Redundant roles of VEGF-B and P1GF during selective VEGF-A blockade in mice. Blood 107:550-7 (2006)) and was dosed at 10 mg/kg, IP, twice weekly unless indicated otherwise. Isotype-matched control antibody was anti-human ragweed-IgG2a (Genentech, Inc.). […] Tumor measurement was performed twice/week and terminal tumor weights were determined as described above.
B16F1 admixing experiments. […] Tumor size was assessed using Vernier calipers 2-3 times per week after tumors reached a palpable size. Tumor volume was determined using the Pi/6×L×W×W formula with L as the longest diameter and W the diameter at the position perpendicular to L.
Chemotherapy. […] Tumor volume was measured twice a week and was calculated as described.

Series [5] has as its system B16F1 tumors. Kind of series: Tumor growth of B16F1 tumors in mice. The class given is in vivo, mouse. The settings on record: B16F1 in C57BL/6; compared to anti-VEGF treatment; day 17. The procedure: as §1, §2, §3
In series [6] the test system is EL4 tumors. The series can be described thus: In vivo treatment with clodronate liposomes and anti-VEGF, EL4 tumor volume. More on the design: species or system mouse. The settings on record: mice bearing resistant tumors. As for the experimental part:
In vivo treatment to examine for macrophage depletion and tumor expression: EL4, the murine lymphocyte leukemia cell line, was used. Treatment was started 48 hours after implanting EL4 tumor cells (5×10^6, 0.1 ml vol. in matrigel) in nude mice. Treatment was as follows: Group 1: 8 mice, twice a week PBS-liposome 200 μl IV and Ragweed IgG 2×5 mg/kg/week 100 μl ip.; Group 2: 8 mice, twice a Week: PBS-liposome 200 μl IV and G6-31 2×5 mg/kg/week 100 μl ip.; Group 3: 8 mice, twice a week: Clodronate-liposome 200 μl IV. Ragweed IgG 2×5 mg/kg/week 100 μl ip.; Group 4: 8 mice twice a week: Clodronate-liposome 200 μl IV. G6-31 2×5 mg/kg/week 100 μl ip. Group 5: 8 mice twice a week: Clodronate-liposome 200 μl Iv. PBS twice a week 100 μl ip. 3 mice of each group were pre-bled for 50 μl of whole blood for FACS macrophage cell population evaluation. 3 mice of each group were bled (optical) for 100 μl of whole blood at 1 hour after each PBS-liposome or Clodronate-liposome injection for FACS analysis. The study continued until sufficient tumor growth (not beyond 5 weeks). Tumor growth was defined as sufficient if a tumor was greater than 20 mm in length. Tumor size was measured weekly (1×w×h). […] At the endpoint of the experiment the animals were sacrificed, the tumors, measured one final time then extracted, weighed and then fixed. […]

In series [7] the test system is HUVEC cells. Kind of series: Angiogenic sprouting and capillary lumen formation assay. The class given is cell-based, human. As to conditions: 1.25 μg/ml with D551 fibroblasts, day 10. The procedure: See FIG. 13, Panel A and Pane B on day 10. In the assays, HUVEC cells were thawed at low passage number a day before the cells were coated on beads. The cells were detached at about 80% confluency and coated on cytodex microbeads (a cross-linked dextran matrix) with HUVEC (400 cells/bead) for 4 hours at 37° C. Beads and free HUVEC cells were transferred to a flask and cultured overnight. The beads were detached and they were mixed with fibrinogen (bovine plasma) (250 μg/ml). Fibrinogen was then converted to insoluble fibrin gel by adding thrombin. There are about 100 beads/12-well plate. The beads were cultured with 40,000 D551 fibroblasts and VEGF as positive controls, D551 or VEGF as negative controls, MCP-1 and D551, or MIP-1alpha and D551. The media was changed everyday. The cultures were stained with biotinylated anti-human CD31 and Cy3 streptavidin overnight with extensive washes. Pictures were taken at 60 hours, 6 days and 10 days.

The subject of series [8] is human cancers, including renal and ovarian carcinomas. The settings on record: clinical evaluation; cited from earlier work.
Series [9] deals with xenograft models. The settings on record: most xenograft models tested; cited from earlier work.

Turning to `O=c1[nH]cc(F)c(=O)[nH]1` [5FU, 5-Fluorouracil], the “BM CD11b+Gr1+ cells after chemotherapy” value in series [1] (bone marrow, all tumor types) is reported as “complete exhaustion”. In series [1], the “CD11b+Gr1+ cells in B16F1 tumors after chemotherapy” value was “lack of CD11b+Gr1+ cells”. In addition, the “tumor response to chemotherapy (tumor volume)” value in [2] was “complete response”; in [3] it was “complete response”; in series [4], “completely sensitive”; in series [5] it was “resistance”.
For the molecule `Nc1ccn([C@@H]2O[C@H](CO)[C@@H](O)C2(F)F)c(=O)n1` [Gemcitabine], in series [1], the “CD11b+Gr1+ cells in B16F1 tumors after chemotherapy” value is on record as “lack of CD11b+Gr1+ cells”. Besides, the “tumor response to chemotherapy (tumor volume)” value in series [2] is “partial resistance”; in [3], “partial resistance”; in series [4] it was “completely sensitive”; in series [5], “resistance”.
On to `O=P(O)(O)C(Cl)(Cl)P(=O)(O)O` [clodronate], for which the “efficacy of anti-VEGF treatment after depletion of TAMs” value in [6] was “improved”.
Take “MCP-1: monocyte chemoattractant protein-1”: in series [7], the “angiogenic activity (sprouting and capillary lumen formation)” value is listed as “angiogenic activity”.
“bevacizumab: humanized anti-VEGF monoclonal antibody”: the single-agent activity entry in series [8] is on record as “significant single-agent activity”. For the same molecule, the “tumor growth and tumor angiogenesis” value in series [9] is “significantly inhibited tumor growth and reduced tumor angiogenesis”.

B1: MIP-1alpha: macrophage inflammatory protein-1a (protein, UniProt P10147 24-92, looked up)
C-C motif chemokine 3: SLAADTPTACCFSYTSRQIPQNFIADYFETSSQCSKPGVIFLTKRSRQVCADPSEEWVQKYVSDLELSA
On to B1, for which the “angiogenic activity (sprouting and capillary lumen formation)” value in series [7] is on record as “angiogenic activity”.
